In this experiment the test system is β-catenin-TCF-mediated reporter transcription activity in Colo 205 cells. Description: Colo 205 reporter assay (TCF/LEF luciferase). The class given is cell-based. The following applies: Colo 205 TCF/LEF luciferase reporter, read-out: TCF reporter Colo205 IC50. The method, boiled down: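 Luciferase signal from a TCF/LEF-driven reporter, stably integrated in Colo 205 colon cancer cells, was measured 5 h after compound addition.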

Where [1] appears, read: Homo sapiens, COLO 205, 5 h, five hours after addition of compound.
The mark [2] stands for this setting: five hours after addition of compound.

pIC50: −log10 of the molar value. Like-named read-outs stand apart in the source and are kept apart here.

Turning to `Cc1nc(N[C@H]2C[C@H](Nc3cnc(C(F)(F)F)cn3)C2)nc2c1NC(=O)[C@H](C)N2C` [Compound 579, (S)-4,7,8-trimethyl-2-((trans-3-((5-(trifluoromethyl)pyrazin-2-yl)amino)cyclobutyl)amino)-7,8-dihydropteridin-6(5H)-one], under setting [1], the pIC50 was 5.30 to 6.00.

As to `Cc1nc(NC2CN(Cc3cc(F)c(F)c(F)c3)C2)nc2c1NC(=O)[C@H](C(C)C)N2C` [Compound 591, (S)-7-isopropyl-4,8-dimethyl-2-((1-(3,4,5-trifluorobenzyl)azetidin-3-yl)amino)-7,8-dihydropteridin-6(5H)-one], the pIC50 under setting [1] was greater than 6.52.

With `COc1cc(F)ccc1Cn1cc(CNc2nc(C)c3c(n2)N(C)[C@@H](C)C(=O)N3C)cn1` [Compound 84, (7S)-2-(((1-(4-fluoro-2-methoxybenzyl)-1H-pyrazol-4-yl)methyl)amino)-4,5,7,8-tetramethyl-7,8-dihydropteridin-6(5H)-one], the negative-log IC50 (pIC50) under setting [1] is greater than 6.52.

In the case of `Cc1nc(N[C@H]2C[C@@H](Cn3ccc(C(F)(F)F)n3)C2)nc2c1NC(=O)[C@H](C)N2C` [Compound 698, (S)-4,7,8-trimethyl-2-((cis-3-((3-(trifluoromethyl)-1H-pyrazol-1-yl)methyl)cyclobutyl)amino)-7,8-dihydropteridin-6(5H)-one], under setting [1], the pIC50 was 6.00 to 6.52.

For the compound `CO[C@H](C)[C@H]1C(=O)Nc2c(C)nc(N[C@H]3C[C@H](Oc4cc(F)c(F)c(F)c4)C3)nc2N1C` [Compound 599, (S)-7-((R)—1-methoxyethyl)-4,8-dimethyl-2-((trans-3-(3,4,5-trifluorophenoxy)cyclobutyl)amino)-7,8-dihydropteridin-6(5H)-one], under setting [1], the negative logarithm of the IC50 (pIC50) was greater than 6.52.

Regarding `Cc1nc(NCc2cnn(Cc3ccc(C(F)(F)F)nc3)c2)nc2c1NC(=O)[C@H](CC(F)(F)F)N2C` [Compound 495, (S)-4,8-dimethyl-7-(2,2,2-trifluoroethyl)-2-(((1-((6-(trifluoromethyl)pyridin-3-yl)methyl)-1H-pyrazol-4-yl)methyl)amino)-7,8-dihydropteridin-6(5H)-one], the pIC50 under setting [1] was greater than 6.52.

In the case of `COc1c(F)cc(Cn2cnc(CNc3nc(C)c4c(n3)N(C)[C@@H](C(C)C)C(=O)N4)n2)cc1F` [Compound 488, (S)-2-(((1-(3,5-difluoro-4-methoxybenzyl)-1H-1,2,4-triazol-3-yl)methyl)amino)-7-isopropyl-4,8-dimethyl-7,8-dihydropteridin-6(5H)-one], under setting [1], the negative-log IC50 (pIC50) is 5.30 to 6.00.

For `Cc1nc(N[C@H]2C[C@@H](COc3ccc(OC(F)(F)F)nc3)C2)nc2c1NC(=O)[C@H](C(C)C)N2C` [Compound 598, (S)-7-isopropyl-4,8-dimethyl-2-((cis-3-(((6-(trifluoromethoxy)pyridin-3-yl)oxy)methyl)cyclobutyl)amino)-7,8-dihydropteridin-6(5H)-one], under setting [1], the pIC50 is greater than 6.52.

`Cc1nc(N[C@H]2C[C@H](Oc3ccc(OC(F)F)nc3)C2)nc2c1N(C)C(=O)[C@H](C)N2C` [Compound 362, (7S)-2-((trans-3-((6-(difluoromethoxy)pyridin-3-yl)oxy)cyclobutyl)amino)-4,5,7,8-tetramethyl-7,8-dihydropteridin-6(5H)-one]: under setting [1], the negative logarithm of the IC50 (pIC50) is 6.00 to 6.52.

Consider `Cc1nc(NC2CN(C(=O)c3ccn(C(F)F)n3)C2)nc2c1NC(=O)[C@H](C(C)C)N2C` [Compound 614, (S)-2-((1-(1-(difluoromethyl)-1H-pyrazole-3-carbonyl)azetidin-3-yl)amino)-7-isopropyl-4,8-dimethyl-7,8-dihydropteridin-6(5H)-one], for which the pIC50 under setting [1] was 5.30 to 6.00.

Consider `Cc1nc(N[C@H]2C[C@H](Oc3cncc(F)c3)C2)nc2c1NC(=O)[C@H](C)N2C` [Compound 262, (7S)-2-((trans-3-((5-fluoropyridin-3-yl)oxy)cyclobutyl)amino)-4,7,8-trimethyl-7,8-dihydropteridin-6(5H)-one], for which, under setting [1], the negative-log IC50 (pIC50) is 5.30 to 6.00.

For “(S)-7-((S)-1-(tert-butoxy)ethyl)-4,8-dimethyl-2-(((1-(3,4,5-trifluorobenzyl)-1H-pyrazol-4-yl)methyl)amino)-7,8-dihydropteridin-6(5H)-one [Compound 747]”, under setting [2], the negative logarithm of the IC50 (pIC50) was 6.00 to 6.52.

As for `Cc1nc(NCc2cnn(Cc3ccc(C(F)(F)F)nc3)c2)nc2c1NC(=O)[C@H](COC(C)(C)C)N2C` [Compound 590, (S)-7-(tert-butoxymethyl)-4,8-dimethyl-2-(((1-((6-(trifluoromethyl)pyridin-3-yl)methyl)-1H-pyrazol-4-yl)methyl)amino)-7,8-dihydropteridin-6(5H)-one], the negative logarithm of the IC50 (pIC50) under setting [1] is 6.00 to 6.52.

In the case of `Cc1nc(N[C@H]2CO[C@H](COc3cc(F)c(F)c(F)c3)C2)nc2c1NC(=O)[C@H](C)N2C` [Compound 301, (7S)-4,7,8-trimethyl-2-(((3R,5S)-5-((3,4,5-trifluorophenoxy)methyl)tetrahydrofuran-3-yl)amino)-7,8-dihydropteridin-6(5H)-one], the pIC50 under setting [2] was greater than 6.52.

For `Cc1nc(NCc2ccnc(N3CCCCC3)c2)nc2c1NC(=O)[C@H](C)N2C` [Compound 60, (S)-4,7,8-trimethyl-2-(((2-(piperidin-1-yl)pyridin-4-yl)methyl)amino)-7,8-dihydropteridin-6(5H)-one], under setting [1], the pIC50 was no more than 5.30.

`Cc1nc(NC2CN(C(=O)CC3CC4CCC3C4)C2)nc2c1NC(=O)[C@H](C(C)C)N2C` (stereo partly drawn) [Compound 623, (7S)-2-((1-(2-(bicyclo[2.2.1]heptan-2-yl)acetyl)azetidin-3-yl)amino)-7-isopropyl-4,8-dimethyl-7,8-dihydropteridin-6(5H)-one]: the pIC50 under setting [1] is 6.00 to 6.52.

On to `Cc1nc(N[C@H]2C[C@@H](NC(=O)Cc3ccc(C(F)(F)F)nc3)C2)nc2c1NC(=O)[C@H](C(C)C)N2C` [Compound 559, N-(cis-3-(((S)-7-isopropyl-4,8-dimethyl-6-oxo-5,6,7,8-tetrahydropteridin-2-yl)amino)cyclobutyl)-2-(6-(trifluoromethyl)pyridin-3-yl)acetamide], for which the negative logarithm of the IC50 (pIC50) under setting [1] is 5.30 to 6.00.

Regarding `Cc1nc(N[C@H]2C[C@H](Oc3cncc(C(F)(F)F)c3)C2)nc2c1N(C)C(=O)[C@H](C)N2C` [Compound 314, (7S)-4,5,7,8-tetramethyl-2-((trans-3-((5-(trifluoromethyl)pyridin-3-yl)oxy)cyclobutyl)amino)-7,8-dihydropteridin-6(5H)-one], the pIC50 under setting [1] is 6.00 to 6.52.

Take `Cc1nc(N[C@H]2CCN(C(=O)c3cc(F)c(F)c(F)c3)C2)nc2c1NC(=O)[C@H](C(C)C)N2C` [Compound I-509]: the pIC50 under setting [1] is 6.00 to 6.52.

As to `Cc1nc(NCc2cnn(Cc3cc(C(F)(F)F)nn3C)c2)nc2c1NC(=O)[C@@H](C1CC1)N2C` [Compound I-1498], the pIC50 (Homo sapiens, COLO 205, 5 h, R-isomer at C2 (corresponding to C2 S-isomer), 5 h) was 6.00 to 6.52.

For the compound `CC[C@H]1C(=O)N(C)c2cnc(NCc3cnn(Cc4cc(F)c(F)c(F)c4)c3)nc2N1CC(F)(F)F` [Compound 33, (7S)-7-ethyl-5-methyl-2-(((1-(3,4,5-trifluorobenzyl)-1H-pyrazol-4-yl)methyl)amino)-8-(2,2,2-trifluoroethyl)-7,8-dihydropteridin-6(5H)-one], the pIC50 under setting [1] was 6.00 to 6.52.

For the compound `Cc1nc(N[C@H]2C[C@@H](c3ccc(OC(F)(F)F)cc3)C2)nc2c1NC(=O)[C@H](C)N2C` [Compound 507, (7S)-4,7,8-trimethyl-2-(((cis)-3-(4-(trifluoromethoxy)phenyl)cyclo-butyl)amino)-7,8-dihydropteridin-6(5H)-one], the negative-log IC50 (pIC50) under setting [1] is greater than 6.52.

Source of the values: patent US20230312587A1, “PTERIDINONE COMPOUNDS AND USES THEREOF” (Vertex Pharmaceutical Incorporated, priority 2018, published 2023).
